Values after ≈ are worked out from the molar mass of the structure shown.
Assays:
[1] = test system: retinal pigment epithelium (RPE) cells; assay: Primary RPE culture proliferation; type: cell-based, human; conditions: FIG. 5; 10^−10 to 10^−6 M, six days treatment
Description: Primary cultures of human retinal pigment epithelium (RPE) were established from eyes as previously described, (Campochiaro et al., Invest. Opthal & Vis. Sci. 32:65-72 (1991)). 5×10^4 Cells were plated in 16-mm wells of 24-well multiwell plates in Dulbecco's modified Eagle's medium (DMEM Gibco) containing 10% fetal bovine serum (FBS). Cells were treated with ethanol alone (control), ATRA (10^−10 to 10^−6 M) in ethanol, and Compound 42 (10^−10 to 10^−6 M) in ethanol. Cells were fed with fresh media containing the appropriate concentrations of these compounds every two days for a total of six days treatment. Cells were removed from the plates via treatment with trypsin and the number of cells were counted with an electronic cell counter.

[2] = test system: AML-193 cells (acute monocytic leukemia); assay: AML 193 cell culture assay (3H-thymidine incorporation); type: cell-based, human; conditions: FIG. 3; low concentrations
Description: (§1) All trans-retinoic acid (t-RA) (Sigma Chemicals Co., St. Louis, Mo.) was stored at −70° C. Prior to each experiment the compound was dissolved in 100% ethanol at 1 mM and diluted in culture medium immediately before use. All experiments were performed in subdued light. Controls were assayed using the same concentration of ethanol as present in the experimental plates and this concentration of diluent had no effect in either assay.
AML-193 was established from the blast cells classified as M5 Acute Monocyte Leukemia. The growth factor, […] (GM-CSF) was required to establish this cell line and growth factors are necessary for its continuous proliferation in chemically defined medium. AML-193 cells were grown and maintained in Iscove's modified Dulbecco's medium supplemented with 10% fetal bovine serum, glutamine and antibiotics with 5 μg/ml insulin (Sigma Chemical Co.) and 2 ng/ml rh GM-CSF (R and D Systems). The cells were diluted to a concentration of 3×10^5/ml twice a week.
(§2) AML-193 cells were plated in a 96 well round bottom microtiter plate (Costar) at a density of 1,000 cells/well. To appropriate wells, retinoid test compounds were added at the final concentrations indicated for a final volume of 150 μl/well. The plates were incubated for 96 hours at 37° C. in a humidified atmosphere of 5% CO2 in air. Subsequently, 1 μCi of [5′-^3H]-thymidine (Amersham, U.K., 43 Ci/mmol specific activity) in 25 μl culture medium was added to each well and the cells were incubated for an additional 6 hours.
(§3) The cell lines were then processed as follows: the cellular DNA was precipitated with 10% trichloroacetic acid onto glass fiber filter mats using a SKATRON multi-well cell harvester (Skatron Instruments, Sterling Va.). Radioactivity incorporated into DNA, as a direct measurement of cell growth, was measured by liquid scintillation counting. The numbers represent the mean disintegrations per minute of incorporated thymidine from triplicate wells±SEM.

[3] = test system: limb bud mesenchymal cells; assay: Chondrogenesis suppression bioassay (teratogenic potency); type: cell-based; conditions: read-out: IC50 (50% inhibition of chondrogenesis); mouse limb bud spot cultures, 96 hours after plating; greater IC50 signifies lesser teratogenecity
Description: High-density “spot” cultures of limb bud mesenchymal cells are used to compare the ability of various concentrations of test drugs to suppress chondrogenic differentiation as a bioassay. Forelimb buds of mouse embryos on day 12 of gestation (54±2 somites) are dissociated in a trypsin-EDTA solution, and the resultant single-cell suspension is plated as 20-μl spots (200,000 cells/spot) on plastic culture dishes. Retinoid concentrations ranging from 0.3 ng/ml to 3 μg/ml (1 nM−10 μM) are added to the culture medium (Eagle's MEM±10% fetal bovine serum, GIBCO) 24 hours after initial plating. Control cultures receive only the vehicle (ethanol, concentration≦1% by vol); Retinoic acid is used as a positive control in another set of cultures.
The cultures are terminated 96 hours after plating, at which time the medium is removed and the cells are fixed for 1 hour in 10% formalin containing 0.5% cetylpyridinium chloride. The cultures are rinsed in acetic acid and stained for 1 hour in 0.5% Alcian blue solution at pH 1.0, differentiated in 3% acetic acid, and then dehydrated in ethanol and scored for chondrogenesis under the microscope. An absence or reduction in the number of cartilage nodules in stained cultures as compared with control cultures is taken as a measure of suppression of chondrogenesis. The number of cartilage nodules stained in the whole spot, mean number of nodules, and standard deviations are calculated for four replicate cultures per treatment. […] The IC50 values are expressed in nanogram per mililiter (ng/ml) units. An IC50 value of greater concentration in this assay signifies lesser teratogenecity.

[4] = test system: RPMI 8226 cells (malignant myeloma); assay: RPMI 8226 cell culture assay (3H-thymidine incorporation); type: cell-based, human; conditions: FIG. 1; low concentration range 10^−12 to approximately 10^−9
Description: as §1
The cell lines, RPMI 8226, ME-180 and AML-193 were obtained from the American Type Culture Collection (ATCC, Rockville, Md.). RPMI 8226 is a human hematopoietic cell line obtained from the peripheral blood of a patient with multiple myeloma. The cells resemble the lymphoblastoid cells of other human lymphocyte cell lines and secrete […] light chains of immunoglobulin. RPMI-8226 cells are grown in RPMI medium (Gibco) supplemented with 10% fetal bovine serum, glutamine and antibiotics. The cells were maintained as suspension cultures grown at 37° C. in a humidified atmosphere of 5% CO2 in air. The cells were diluted to a concentration of 1×10^5/ml twice a week.
as §2, with “The method used for determination of the incorporation of radiolabeled thymidine was adapted from the procedure described by Shrivastav et al. RPMI-8226” for “AML-193”, “U.K.” for “U.K.,”, “hours. The cultures were further processed as described below.” for “hours.”
as §3

[5] = test system: ovarian tumor cells; assay: EDR assay on cells from solid tumors of patients; type: cell-based, human; conditions: FIG. 4; tumors from 4 patients, four days with drug
Description: Freshly resected solid tumor biopsies were received within 24 hours of surgery. Species were processed for assay after retaining a portion of the tumor for paraffin embedding and histopathologic confirmation of specimen viability and tissue diagnosis. The remaining specimen was dissociated into small fragments using sterile scissors. The small tissue fragments were then exposed to collagenase and DNAase for 2 hours with mixing a CO2 incubator in order to release the tumor cells from the connective tissue stroma. The resulting cell suspension was washed, and cell counts determined from a cytospin preparation. Tumor cells were resuspended at 40,000 cells per ml in 0.3% agarose in RMPI 1640 supplemented with 15% FCS, glutamine and antibiotics, and 0.5 ml were plated into each well of a 24 well plate over 0.5 ml layer of 0.5% agarose. These culture conditions prevent cell adherence, thereby allowing only transformed cells to proliferate. Additionally, the cells grow into three dimensional spheroids, recapitulating their in vivo morphology.
Retinoid drugs were added 24 hours after plating to insure specimen reequilibration to a growth environment after the rigors of transport and processing. […] After the agarose-cell suspension was liquefied at 90° C., cells were harvested onto glass fiber filters, which were counted in 5 ml scintillation fluid using a Beckman 6500 liquid scintillation counter. […]

Row | Structure (SMILES) | RPE cell proliferation [1] | AML-193 cell proliferation at low concentrations [2] | IC50 [3] [µg/mL] | growth of RPMI 8226 cells at low concentration [4] | ovarian tumor cell proliferation [5]
1 | CC1=C(/C=C/C(C)=C/C=C/C(C)=C/C(=O)O)C(C)(C)CCC1 [ATRA, all trans retinoic acid, reference compound] | dose dependent decrease in RPE cell proliferation | promotes cell proliferation | 0.055 (≈ 0.183 µM) | facilitates growth | –
2 | CC1(C)CCC(C)(C)c2cc(C(=O)Nc3ccc(C(=O)O)c(F)c3)ccc21 [Compound 2] | – | – | – | – | inhibits this tumor cell proliferation in a concentration dependent manner

— patent US6610744B2, “Methods of treatment with compounds having RARα receptor specific or selective activity” (Allergan, Inc., priority 1995, dated 2003)
